From PubChem BioAssay (NCI)
“And” between values parts separate entries of the source, which are not always exact repeats. Equal entries are not always repeated.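 Growth conditions: 96-well plates. Treatment: test compound, 48 hours, 5 concentrations. Analysis: linear interpolation between bracketing concentrations; unreached endpoints set to highest concentration. GI50 = concentration required for 50% inhibition of growth. TGI: total growth inhibition.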

Columns and labels:
Assay in all cases: NCI anticancer screen, dose series, 48 h
[1] = tested on: MOLT-4 leukemia
[2] = tested on: HOP-92 NSCLC
[3] = tested on: KM12 colon
[4] = tested on: HCT-15 colon
[5] = tested on: OVCAR-3 ovarian
[6] = tested on: LOX IMVI melanoma
[7] = tested on: SR leukemia
[8] = tested on: RXF 393 renal
[9] = tested on: SNB-75 CNS
[10] = tested on: NCI-H226 lung

SMILES	TGI [1]	TGI [2]	TGI [3]	TGI [4]	TGI [5]	TGI [6]	TGI [7]	TGI [8]	TGI [9]	TGI [10]	GI50 [1]	GI50 [2]	GI50 [3]	GI50 [4]	GI50 [5]	GI50 [6]	GI50 [7]	GI50 [8]	GI50 [9]	GI50 [10]
Cc1cc(Br)cc(C)c1NC(=O)C(=O)C(C(=O)c1ccc2ccccc2c1)C1OC(=O)c2ccccc21 (stereo not given)	13.4 µM	6.9 µM	34 µM	42.3 µM	> 64.8 µM	31.1 µM	33.9 µM	17.8 µM	43.9 µM	11.2 µM	–	–	–	–	–	–	–	–	–	–
CCCCc1c(OC)cc(O)c2c1C(=O)c1[nH]c(C(=O)O)c(O)c(=O)c1C2=O	> 100 µM	> 100 µM	> 100 µM	> 100 µM	8.45 µM	> 100 µM	29.3 µM	8.25 µM	27.5 µM	23.6 µM	–	–	–	–	–	–	–	–	–	–
O=c1n(CC2CO2)c(=O)n(CC2CO2)c(=O)n1CC1CO1 (stereo not given)	210 µM and > 100 µM	63.7 µM and 111 µM and > 100 µM	112 µM and > 100 µM	78.3 µM and 90.6 µM and > 100 µM	108 µM and 40.2 µM	47.5 µM and 102 µM and > 100 µM	877 µM and > 100 µM	109 µM and 23.8 µM	89.8 µM and > 100 µM	78.3 µM and 103 µM and 45.9 µM	5.09 µM and 2.95 µM	18 µM and 7.22 µM	21.3 µM	13.1 µM and 25.7 µM and 11.9 µM	20.6 µM and 13.1 µM	12.3 µM and 6.12 µM	13.2 µM and 1.5 µM	4.01 µM	6.8 µM and 21.1 µM	22.6 µM and 10.9 µM
CCN(CC)CCOc1ccc(/C=C(\C#N)c2ccc(OCCN(CC)CC)cc2)cc1	38.2 µM	55.4 µM	23.2 µM	30.8 µM	> 63.1 µM	25.5 µM	30 µM	27.9 µM	47.8 µM	> 78.4 µM	–	–	–	–	–	–	–	–	–	–
CC1=Nc2ccccc2C1C(Cc1ccccc1N)c1c(C)[nH]c2ccccc12 (stereo not given)	53.4 µM	26.1 µM	31.7 µM	51 µM	31.4 µM	28.2 µM	50.3 µM	35.1 µM	34.8 µM	32.9 µM	–	–	–	–	–	–	–	–	–	–
COc1ccc(C(=O)c2cc(OC)c(C)c(OC)c2)cc1OC(=O)CCl	18 µM	58.5 µM	> 44.2 µM	27.2 µM	10.8 µM	19.6 µM	13.2 µM	32.5 µM	> 100 µM	> 30.6 µM	0.145 µM	3.22 µM	0.13 µM	0.0697 µM	0.336 µM	0.244 µM	0.0305 µM	0.33 µM	0.154 µM	8 µM
CCOc1nc(-c2ccccc2)cc2c(O)c(-c3nnco3)[nH]c(=O)c12	> 100 µM	6.97 µM	> 100 µM	> 100 µM	> 100 µM	> 100 µM	> 100 µM	25.2 µM	8.99 µM	> 100 µM	4.9 µM	1.24 µM	4.14 µM	3.66 µM	4.42 µM	4.4 µM	3.85 µM	3.71 µM	1.92 µM	6.25 µM
COc1ccc2c(c1)C(C)Cc1c(Cl)ncnc1N2C (stereo not given)	> 22.6 µM	7.5 µM	1.37 µM	> 32.3 µM	0.75 µM	0.517 µM	> 19.8 µM	3.83 µM	> 54.6 µM	0.481 µM	1.17 µM	1.25 µM	0.298 µM	0.402 µM	0.268 µM	0.218 µM	0.45 µM	0.42 µM	0.557 µM	0.213 µM
COc1ccc2c(c1)CCC1C2CC[C@@]2(C)C1CC1=CC(COC(C)=O)C3C(=O)c4ccccc4C(=O)C3C12 (stereo not given in full)	> 100 µM	49.7 µM	> 100 µM	> 100 µM	> 100 µM	> 100 µM	> 100 µM	> 100 µM	> 100 µM	> 100 µM	> 100 µM	1.43 µM	> 100 µM	> 100 µM	> 100 µM	> 100 µM	> 100 µM	59.8 µM	36.3 µM	> 100 µM
O=c1c2ccccc2[se]n1-c1cccnc1	> 100 µM	36.1 µM	> 100 µM	52.8 µM	> 100 µM	56.8 µM	> 100 µM	69.2 µM	43.8 µM	> 100 µM	–	–	–	–	–	–	–	–	–	–
COc1ncnc(C2CC2)c1-c1ncc2cnn(Cc3ccc(-c4nc(C(F)(F)F)cn4C(C)C)cc3)c2n1	> 100 µM	73.5 µM	81.8 µM	90.7 µM	76.5 µM	31.7 µM	> 100 µM	39.8 µM	53.6 µM	50.7 µM	17.5 µM	6.41 µM	23.4 µM	17 µM	22.2 µM	14.8 µM	19.7 µM	6.5 µM	5.36 µM	9.08 µM
O=C(O/N=C1/CCCC/C1=C\c1ccccc1)c1ccccc1	49 µM	> 100 µM	> 100 µM	> 100 µM	> 100 µM	88.8 µM	> 100 µM	> 100 µM	> 100 µM	> 100 µM	–	–	–	–	–	–	–	–	–	–
CC(=O)OC1Oc2ccccc2-c2oc(=O)c(-c3cc(=O)oc4cc(O)ccc34)cc21 (stereo not given)	20.1 µM	40.9 µM	46.4 µM	96.4 µM	41.4 µM	37.5 µM	6.5 µM	20.6 µM	72.2 µM	67.3 µM	4.33 µM	14.1 µM	19.8 µM	21.3 µM	13.8 µM	17.8 µM	2.65 µM	4.5 µM	22.3 µM	27.1 µM
O=C1CCCC/C(=C/c2ccccc2)N1	> 100 µM	> 100 µM	> 100 µM	> 100 µM	> 100 µM	> 100 µM	> 100 µM	> 100 µM	> 100 µM	> 100 µM	–	–	–	–	–	–	–	–	–	–
CC[C@]12C=CCN3CC[C@@]4(c5ccc(OC)cc5N(C)[C@H]4[C@@](O)(C(=O)OC)[C@@H]1OC(=O)CCC[P+](c1ccccc1)(c1ccccc1)c1ccccc1)[C@@H]32	4.75 µM and 3.68 µM	0.78 µM and 0.946 µM	1.06 µM and 1.8 µM	20.7 µM and 28.8 µM	2.97 µM and 1.99 µM	6 µM and 2.18 µM	7.07 µM and 1.97 µM	2.94 µM and 4.34 µM	3.58 µM and 1.23 µM	8.62 µM and 12.4 µM	1.04 µM and 1.1 µM	0.0934 µM and 0.241 µM	0.274 µM and 0.527 µM	8.69 µM and 14.2 µM	0.291 µM and 0.447 µM	0.923 µM and 0.662 µM	0.379 µM and 0.438 µM	0.736 µM and 1.53 µM	0.554 µM and 0.218 µM	1.91 µM and 1.93 µM
COC(=O)c1cc2c3ccccc3n(C(C)=O)c2cn1	> 100 µM	> 100 µM	> 100 µM	> 100 µM	> 100 µM	> 100 µM	> 100 µM	87.1 µM	> 100 µM	> 100 µM	–	–	–	–	–	–	–	–	–	–
C/C(=C\CCc1ccoc1)CC/C=C(\C)CCCC1=CC(=O)OC1	15.4 µM	13 µM	23.7 µM	20 µM	25 µM	17.2 µM	17.1 µM	15.7 µM	52 µM	29.4 µM	3.94 µM	2.09 µM	8.44 µM	4.47 µM	9.69 µM	4.84 µM	3.45 µM	3.17 µM	4.46 µM	11 µM
COC(=O)/C=C/c1cc(O)c2oc(-c3ccc(O)c(O)c3)c(C(=O)OC)c2c1	7.11 µM	11.3 µM	9.38 µM	11.2 µM	3.43 µM	10.3 µM	> 24.3 µM	4.84 µM	1.41 µM	22.3 µM	0.462 µM	1.57 µM	0.439 µM	0.0672 µM	0.147 µM	0.367 µM	0.039 µM	0.523 µM	0.0376 µM	3.85 µM
Oc1ccc(Cl)cc1Cc1cc(Cl)cc(Cl)c1O	32.1 µM	6.42 µM	19.8 µM	23.5 µM	16.5 µM	19.2 µM	27.4 µM	8.54 µM	40.8 µM	37.2 µM	5.52 µM	1.19 µM	4.34 µM	4.18 µM	2.83 µM	4.83 µM	5.02 µM	2.54 µM	5.14 µM	12.7 µM
CCCCOC(=O)C1C(c2ccc(Cl)cc2)NC(c2ccc(Cl)cc2)C(C(=O)OCCCC)S1(=O)=O (stereo not given)	> 100 µM	> 100 µM	> 100 µM	> 100 µM	> 100 µM	> 100 µM	> 100 µM	> 100 µM	> 100 µM	> 100 µM	–	–	–	–	–	–	–	–	–	–
COC(=O)C1=C(c2ccc3c(c2)OCO3)O[C@H](c2cc(OC)c(OC)c(OC)c2)[C@H]1COC(C)=O	27.8 µM	36 µM	50 µM	> 100 µM	8.22 µM	55.3 µM	70.3 µM	5.09 µM	> 100 µM	> 100 µM	–	–	–	–	–	–	–	–	–	–
CC(C)(C)C(=O)OCOP(=O)(OCOC(=O)C(C)(C)C)C1CCCN(O)C1=O (stereo not given)	2.69 µM	51.5 µM	13.3 µM	14.8 µM	> 100 µM	12.3 µM	7.87 µM	1.74 µM	28.6 µM	9.62 µM	0.431 µM	0.695 µM	0.443 µM	0.675 µM	0.559 µM	0.465 µM	0.433 µM	0.36 µM	1.43 µM	0.996 µM
COC(=O)C12C3C4C1C1C2C3C41C(=O)OC(C)(C)C (stereo not given)	> 100 µM	> 100 µM	> 100 µM	> 100 µM	> 100 µM	> 61.2 µM	44.1 µM	> 100 µM	> 100 µM	> 100 µM	–	–	–	–	–	–	–	–	–	–
CC(C)c1ccc(Nc2ccc3c(OCCCN4CCN(C)CC4)cccc3n2)cc1	8.2 µM	27.4 µM	25.6 µM	4.28 µM	27.5 µM	3.54 µM	10.7 µM	22.4 µM	30 µM	38.7 µM	2.92 µM	10.6 µM	11.3 µM	1.94 µM	14.4 µM	1.86 µM	2.85 µM	7.28 µM	12.8 µM	18.8 µM
CC1OC(n2cc(F)c(=O)[nH]c2=O)C=CC1O (stereo not given)	> 100 µM	> 100 µM	> 100 µM	> 100 µM	> 100 µM	> 64.3 µM	> 100 µM	> 100 µM	> 100 µM	> 100 µM	–	–	–	–	–	–	–	–	–	–
Clc1coc2nc3ccccc3c(Nc3ccc4c(c3)OCO4)c12	22 µM	63.2 µM	12.5 µM	8.05 µM	2.46 µM	13.6 µM	0.938 µM	8.47 µM	> 100 µM	> 26.2 µM	0.803 µM	8 µM	0.997 µM	0.429 µM	0.596 µM	2.01 µM	0.201 µM	1.51 µM	4.36 µM	2.35 µM
C=C(C=O)C1CCC2(C(=O)O)CCC3(C)C(CCC4C5(C)CCC(O)C(C)(C)C5CCC43C)C12 (stereo not given)	> 100 µM	64.6 µM	3.39 µM	4.47 µM	2.87 µM	3.11 µM	> 100 µM	2.99 µM	32.6 µM	> 100 µM	3.79 µM	19.7 µM	1.61 µM	1.65 µM	1.44 µM	1.57 µM	2.23 µM	1.34 µM	10.8 µM	14.3 µM
Cc1ccc(C(SCC(N)C(=O)O)(c2ccccc2)c2ccc(C)cc2)cc1 (stereo not given)	> 48.2 µM	22.4 µM	12.8 µM	23.9 µM	2.64 µM	21.5 µM	4.33 µM	3.52 µM	17.7 µM	25.8 µM	2.7 µM	1.19 µM	0.219 µM	0.367 µM	0.192 µM	0.602 µM	0.204 µM	0.0957 µM	0.334 µM	3.02 µM
O=C1c2ccccc2C(=O)C1(Cl)C1(S(=O)(=O)O)c2ccccc2-c2ccccc21	> 100 µM	> 100 µM	> 100 µM	> 100 µM	> 100 µM	> 100 µM	> 100 µM	> 100 µM	> 100 µM	> 100 µM	–	–	–	–	–	–	–	–	–	–
Cn1cc(C2=C(c3ccc4ccccc4c3)C(=O)NC2=O)c2ccccc21	> 25 µM	> 25 µM	> 25 µM	> 25 µM	> 25 µM	> 25 µM	> 25 µM	> 25 µM	> 25 µM	> 25 µM	> 20.1 µM	> 25 µM	12.5 µM	6.27 µM	> 25 µM	> 25 µM	3.11 µM	> 25 µM	7.47 µM	> 25 µM
